Test results reported in patent publication US12065396B2, “Lipids for use in lipid nanoparticle formulations” (ACUITAS THERAPEUTICS, INC., priority 2017, dated 2024).

What was measured:
[1] = Determination of pKa of formulated lipids (TNS fluorescence assay in lipid nanoparticles); type: physicochemical
Source text: As described elsewhere, the pKa of formulated lipids was correlated with the effectiveness of LNPs for delivery of nucleic acids (see Jayaraman et al, Angewandte Chemie, International Edition (2012), 51(34), 8529-8533; Semple et al, Nature Biotechnology 28, 172-176 (2010)). In some embodiments, the preferred range of pKa was ˜5 to ˜7. […] Lipid nanoparticles comprising compound of structure (I)/DSPC/cholesterol/PEG-lipid (50/10/38.5/1.5 or 47.5:10:40.8:1.7 mol %) in PBS at a concentration of 0.4 mM total lipid were prepared using the in-line process as described in Example 1. TNS was prepared as a 100 μM stock solution in distilled water. Vesicles were diluted to 24 μM lipid in 2 mL of buffered solutions containing 10 mM HEPES, 10 mM MES, 10 mM ammonium acetate, and 130 mM NaCl, where the pH ranged from 2.5 to 11. An aliquot of the TNS solution was added to give a final concentration of […] and following vortex mixing fluorescence intensity was measured at room temperature in a SLM Aminco Series 2 Luminescence Spectrophotometer using excitation and emission wavelengths of 321 nm and 445 nm. A sigmoidal best fit analysis was applied to the fluorescence data and the pKa was measured as the pH giving rise to half-maximal fluorescence intensity.

[2] = test system: luciferase expression in the liver; assay: Luciferase mRNA in vivo evaluation using lipid nanoparticle compositions; design: species or system mice; details: for Liver Luc (ng luc/g liver), *dosed at 1.0 mg/kg: 1.0 mg mRNA/kg (footnote *); for Liver Luc (ng luc/g liver), *dosed at 1.0 mg/kg / Liver Luc @ 0.5 mg/kg (ng luc/g liver): tail vein injection, liver 4 hours after administration; for Relative activity in the luciferase assay relative to MC3: liver luciferase expression 4 hours after tail vein injection, 47.5/10/40.8/1.7 cationic lipid/DSPC/cholesterol/PEG-DMA; for Liver Luc @ 0.5 mg/kg (ng luc/g liver): 0.5 mg mRNA/kg
Method: A lipid of structure (I), DSPC, cholesterol and PEG-lipid were solubilized in ethanol at a molar ratio of 50:10:38.5:1.5 or 47.5:10:40.8:1.7. Lipid nanoparticles (LNP) were prepared at a total lipid to mRNA weight ratio of approximately 10:1 to 30:1. Briefly, the mRNA was diluted to 0.2 mg/mL in 10 to 50 mM citrate buffer, pH 4. Syringe pumps were used to mix the ethanolic lipid solution with the mRNA aqueous solution at a ratio of about 1:5 to 1:3 (vol/vol) with total flow rates above 15 mL/min. The ethanol was then removed and the external buffer replaced with PBS by dialysis. Finally, the lipid nanoparticles were filtered through a 0.2 μm pore sterile filter.
Studies were performed in 6-8 week old female C57BL/6 mice (Charles River) 8-10 week old CD-1 (Harlan) mice (Charles River) according to guidelines established by an institutional animal were committee (ACC) and the Canadian Council on Animal Cwere (CCAC). Varying doses of mRNA-lipid nanoparticle were systemically administered by tail vein injection and animals euthanized at a specific time point (e.g., 4 hours) post-administration. Liver and spleen were collected in pre-weighed tubes, weights determined, immediately snap frozen in liquid nitrogen and stored at −80° C. until processing for analysis.
For liver, approximately 50 mg was dissected for analyses in a 2 mL FastPrep tubes (MP Biomedicals, Solon Ohio). ¼″ ceramic sphere (MP Biomedicals) was added to each tube and 500 μL of Glo Lysis Buffer—GLB (Promega, Madison Wis.) equilibrated to room temperature was added to liver tissue. Liver tissues were homogenized with the FastPrep24 instrument (MP Biomedicals) at 2×6.0 m/s for 15 seconds. Homogenate was incubated at room temperature for 5 minutes prior to a 1:4 dilution in GLB and assessed using SteadyGlo Luciferase assay system (Promega). Specifically, 50 μL of diluted twassue homogenate was reacted with 50 μL of SteadyGlo substrate, shaken for 10 seconds followed by 5 minute incubation and then quantitated using a CentroXS^3 LB 960 luminometer (Berthold Technologies, Germany). The amount of protein assayed was determined by using the BCA protein assay kit (Pierce, Rockford, Ill.). Relative luminescence units (RLU) were then normalized to total g protein assayed. To convert RLU to ng luciferase a standard curve was generated with QuantiLum Recombinant Luciferase (Promega).
The FLuc mRNA (L-6107 or L-7602) from Trilink Biotechnologies will express a luciferase protein, originally isolated from the firefly, Photinus pyralwas. FLuc was commonly used in mammalian cell culture to measure both gene expression and cell viability. It emits bioluminescence in the presence of the substrate, luciferin. This capped and polyadenylated mRNA was fully substituted with 5-methylcytidine and pseudouridine.
Compounds of structure (I) were formulated using the following molar ratio: 47.5% cationic lipid/10% dwastearoylphosphatidylcholine (DSPC)/40.8% Cholesterol/1.7% PEG lipid (“PEG-DMA” 2-[2-(ω-methoxy(polyethyleneglycol2000)ethoxy]-N,N-ditetradecylacetamide). Relative activity was determined by measuring luciferase expression in the liver 4 hours following administration via tail vein injection as described in Example 1. […]
The cationic lipids shown in Table 2 have previously been tested with nucleic acids. For comparative purposes, these lipids were also used to formulate lipid nanoparticles containing the FLuc mRNA (L-6107) using an in line mixing method, as described in Example 1 and in PCT/US10/22614, which is hereby incorporated by reference in its entirety. Lipid nanoparticles may be formulated using the following molar ratio: 50% Cationic lipid/10% distearoylphosphatidylcholine (DSPC)/38.5% Cholesterol/1.5% PEG lipid (“PEG-DMG”, i.e., 1-(monomethoxy-polyethyleneglycol)-2,3-dimyristoylglycerol, with an average PEG molecular weight of 2000). In alternate embodiments, cationic lipid, DSPC, cholesterol and PEG-lipid are formulated at a molar ratio of approximately 47.5:10:40.8:1.7. […]

[3] = TNS fluorescence, pH giving half-maximal fluorescence intensity, values in text

Compound	pKa [1, 3]	pKa ([1]; Table 3, TNS assay)	Liver Luc (ng luc/g liver), *dosed at 1.0 mg/kg [2]	Relative activity in the luciferase assay relative to MC3 [2]	Liver Luc @ 0.5 mg/kg (ng luc/g liver) [2] [ng luc/g liver]
CCCCCCCCCN(CCCN(C)C(C)=O)C(CCCCCCCCC(=O)OCC(CCCC)CCCCCC)CCCCCCCCC(=O)OCC(CCCC)CCCCCC (stereo not drawn) [Compound 1]	4.69				
CCCCCCCCCN(CCCCC(=O)N(C)C)C(CCCCCCCCC(=O)OCC(CC)CCCC)CCCCCCCCC(=O)OCC(CC)CCCC (stereo not drawn) [Compound 2]	4.74				
CCCCC(CC)COC(=O)CCCCCCCCC(CCCCCCCCC(=O)OCC(CC)CCCC)NCCCCC(=O)OCc1ccccc1 (stereo not drawn) [Compound 3]	6.53	6.38	1370 ± 674* ng luc/g liver	3.68	
CCCCCCC(CCCC)COC(=O)CCCCCCCCC(CCCCCCCCC(=O)OCC(CCCC)CCCCCC)N(CCCCN(C)C)C(=O)C(CC)CCCC (stereo not drawn) [Compound 4]	6.49	6.37	1213 ± 702* ng luc/g liver		
CCCCCCCCC(=O)N(CCCCN(C)C)C(CCCCCCCCC(=O)OCC(CCCC)CCCCCC)CCCCCCCCC(=O)OCC(CCCC)CCCCCC (stereo not drawn) [Compound 5]	6.69	6.69	1422 ± 372* ng luc/g liver	6.4	
CCCCCCCCCN(CCCCC(=O)NCCO)C(CCCCCCCCC(=O)OCC(CCCC)CCCCCC)CCCCCCCCC(=O)OCC(CCCC)CCCCCC (stereo not drawn) [Compound 6]		6.1	318 ± 222* ng luc/g liver		
CCCCCCCCCN(CCCCC(=O)N(C)CCO)C(CCCCCCCCC(=O)OCC(CCCC)CCCCCC)CCCCCCCCC(=O)OCC(CCCC)CCCCCC (stereo not drawn) [Compound 7]		5.83	33 ± 18* ng luc/g liver		
CCCCCCC(CCCC)COC(=O)CCCCCCCCC(CCCCCCCCC(=O)OCC(CCCC)CCCCCC)NCCCCC(=O)OCc1ccccc1 (stereo not drawn) [Compound 8]		6.09	550 ± 164* ng luc/g liver		
CCCCCCC(CCCC)COC(=O)CCCCCCCCC(CCCCCCCCC(=O)OCC(CCCC)CCCCCC)N(C)CCCO (stereo not drawn) [Compound 9]		6.29	7628 ± 3298* ng luc/g liver		

Further lines, with some results ahead:

pKa [1, 3]	pKa ([1]; Table 3, TNS assay)	Compound	Liver Luc (ng luc/g liver), *dosed at 1.0 mg/kg [2]	Relative activity in the luciferase assay relative to MC3 [2]	Liver Luc @ 0.5 mg/kg (ng luc/g liver) [2] [ng luc/g liver]
8.04		CCCCCCC(CCCC)COC(=O)CCCCCCCCC(CCCCCCCCC(=O)OCC(CCCC)CCCCCC)NCCCO (stereo not drawn) [Compound 11]			
4.84		CCCCCCCCCN(CCCO)C(CCCCCCCCC(=O)OCC(CCCC)CCCCCC)CCCCCCCCC(=O)OCC(CCCC)CCCCCC (stereo not drawn) [Compound 12]			
	6.03	CCCCCCC(CCCC)COC(=O)CCCCCCCCC(CCCCCCCCC(=O)OCC(CCCC)CCCCCC)N(CC)CCCO (stereo not drawn) [Compound 13]			514 ± 297
	6.19	CCCCCCC(CCCC)COC(=O)CCCCCCCCC(CCCCCCCCC(=O)OCC(CCCC)CCCCCC)N(CC)CCCCO (stereo not drawn) [Compound 14]			238 ± 70
	6.12	CCCCCCCCC(CCCCCC)COC(=O)CCCCCC(CCCCCC(=O)OCC(CCCCCC)CCCCCCCC)N(CC)CCCCO (stereo not drawn) [Compound 15]			345 ± 141
	6.43	CCCCCCC(CCCC)COC(=O)CCCCCCCCC(CCCCCCCCC(=O)OCC(CCCC)CCCCCC)N(C)CCCCO (stereo not drawn) [Compound 16]			2004 ± 582
	6.39	CCCCCCCCC(CCCCCC)COC(=O)CCCCCC(CCCCCC(=O)OCC(CCCCCC)CCCCCCCC)N(C)CCCO (stereo not drawn) [Compound 17]			405 ± 227
	6.45	CCCCCCCCC(CCCCCC)COC(=O)CCCCCC(CCCCCC(=O)OCC(CCCCCC)CCCCCCCC)N(C)CCCCO (stereo not drawn) [Compound 18]			1506 ± 429
	6.31	CCCCCCC(CCCC)C(=O)OCCCCCCCCCC(CCCCCCCCCOC(=O)C(CCCC)CCCCCC)N(C)CCCO (stereo not drawn) [Compound 19]			216 ± 85
	6.25	CCCCCCCCC(CCCCCC)COC(=O)CCCCCC(CCCCCC(=O)OCC(CCCCCC)CCCCCCCC)N(C)CCO (stereo not drawn) [Compound 20]			92 ± 48
